# From patent US20070238731A1, “Dna-Pk Inhibitors” (KUDOS PHARMACEUTICALS LIMITED, priority 2004, published 2007)
# pIC50: −log10 of the molar value.
# Legend:
# HeLa cells = assay: Survival Enhancement Ratio (clonogenic survival assay after 2 Gray irradiation); assay type: cell-based; conditions: inhibitor 100 nM
# Method: Gray irradiation was calculated from the formula: [formula] The degree of cell killing was monitored by a standard clonogenic survival assay. […] Four hours later, compound or vehicle control was added to the cells. […] The cells were then incubated for a further 16 hours before the media was replaced with fresh media in the absence of DNA-PK inhibitor. After 8 days, colonies formed were fixed and stained with Giemsa (Sigma, Poole, UK) and scored using an automated colony counter (Oxford Optronics Ltd, Oxford, UK). The data was calculated as described above.
# DNA-PK = DNA-PK (Homo sapiens, UniProt P78527); conditions: read-out: IC50 towards DNA-PK; cited from earlier work
# PI 3-kinase = conditions: stated to be the same as for DNA-PK; cited from earlier work
# cells = conditions: cited from earlier work
structure (smiles),measurement,setting,value
O=c1cc(N2CCOCC2)oc2c(-c3cccc4c3sc3ccccc34)cccc12,Survival Enhancement Ratio (SER),HeLa cells,1.3
O=C(CCNCC1CCCO1)Nc1ccc(-c2cccc3c(=O)cc(N4CCOCC4)oc23)c2sc3ccccc3c12 (centres unmarked) [Compound 53],melting point,,148 °C
O=c1cc(N2CCOCC2)oc2c(-c3ccccc3)cccc12 [LY294002],pIC50,DNA-PK,~6.00
same,pIC50,PI 3-kinase,~6.00
same,sensitisation of cells to the effects of IR,cells,weakly sensitise cells to the effects of IR
